This note sets out measurements from publication PMC6576746, “Rational discovery of dual-indication multi-target PDE/Kinase inhibitor for precision anti-cancer therapy using structural systems pharmacology” (PLoS Computational Biology, 2019).

Molecules are shown by their SMILES.

Common to all, as to experiment: biochemical
Common to all, as to design: DiscoverX KinomeScan competition binding assay across human kinases; per cent of control at 10 and 100 uM

One test concerns the target CDK5 (Homo sapiens, UniProt Q00535). Conditions: competition binding, % of control; read-out: Percent Control (100 uM Levosimendan). The essentials:
(§1)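 KinomeScan competition binding was run across a human kinase panel at 10 μM and 100 μM levosimendan. Results are %control = (test − positive control)/(negative control − positive control) × 100.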

For another test, the target named is CHEK2 (Homo sapiens, UniProt O96017). Conditions: competition binding, % of control. The essentials: as §1
Chain of CHEK2 (O96017 whole entry): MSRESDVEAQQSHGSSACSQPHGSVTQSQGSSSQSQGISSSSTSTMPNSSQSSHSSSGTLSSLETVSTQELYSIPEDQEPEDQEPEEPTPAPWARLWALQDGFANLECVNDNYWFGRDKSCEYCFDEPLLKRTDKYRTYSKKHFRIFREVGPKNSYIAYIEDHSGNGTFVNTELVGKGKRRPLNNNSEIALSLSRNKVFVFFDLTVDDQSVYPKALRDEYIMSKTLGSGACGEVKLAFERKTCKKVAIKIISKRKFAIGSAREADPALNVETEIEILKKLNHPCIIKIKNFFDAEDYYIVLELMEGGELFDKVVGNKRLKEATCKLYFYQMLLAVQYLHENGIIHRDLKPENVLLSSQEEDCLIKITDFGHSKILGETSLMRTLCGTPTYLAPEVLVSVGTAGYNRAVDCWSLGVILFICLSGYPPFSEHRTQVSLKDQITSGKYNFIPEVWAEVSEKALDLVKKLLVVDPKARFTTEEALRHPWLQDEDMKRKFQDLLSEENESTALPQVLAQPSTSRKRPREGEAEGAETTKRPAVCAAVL
The next test concerns the target CLK4 (Homo sapiens, UniProt Q9HAZ1). Conditions: competition binding, % of control; read-out: Percent Control (100 uM Levosimendan). Summed up: as §1
The target in the next test is CSNK1G1 (Homo sapiens, UniProt Q9HCP0). Conditions: competition binding, % of control; read-out: Percent Control (100 uM Levosimendan). Summed up:
as §1

In another test the target is MAP4K3 (Homo sapiens, UniProt Q8IVH8). Conditions: competition binding, % of control; read-out: Percent Control (100 uM Levosimendan). The essentials: as §1
A further test addresses MAP4K5 (Homo sapiens, UniProt Q9Y4K4). Conditions: competition binding, % of control; read-out: Percent Control (100 uM Levosimendan). Summed up: as §1
A further test concerns the target MELK (Homo sapiens, UniProt Q14680). Conditions: competition binding, % of control; read-out: Percent Control (100 uM Levosimendan). Summed up:
as §1

The next test concerns the target MKNK1 (Homo sapiens, UniProt Q9BUB5). Conditions: competition binding, % of control; read-out: Percent Control (100 uM Levosimendan). The essentials:
as §1

The target of the next test is T1, MRCKB (Homo sapiens, UniProt Q9Y5S2).
T1 construct: gene CDC42BPB
Conditions: competition binding, % of control; read-out: Percent Control (100 uM Levosimendan). Summed up:
as §1

Another test addresses T2, MST4 (Homo sapiens, UniProt Q9P289).
T2 construct: gene STK26
Conditions: competition binding, % of control; read-out: Percent Control (100 uM Levosimendan). The essentials:
as §1

The target of a further test is PRKCI (Homo sapiens, UniProt P41743). Conditions: competition binding, % of control; read-out: Percent Control (100 uM Levosimendan). Summed up:
as §1

In another test the target is RIPK2 (Homo sapiens, UniProt O43353). Conditions: competition binding, % of control; read-out: Percent Control (100 uM Levosimendan). The essentials:
as §1

Another test addresses RIPK4 (Homo sapiens, UniProt P57078). Conditions: competition binding, % of control; read-out: Percent Control (100 uM Levosimendan). The essentials: as §1
In test [1] the target is T3, RSK3(Kin.Dom.2-C-terminal) (Homo sapiens, UniProt Q15349).
T3 construct: gene RPS6KA2; Kin.Dom.2-C-terminal
Conditions: competition binding, % of control; read-out: Percent Control (100 uM Levosimendan). Summed up:
as §1

The target of another test is SGK3 (Homo sapiens, UniProt Q96BR1). Conditions: competition binding, % of control; read-out: Percent Control (100 uM Levosimendan). The essentials:
as §1

The target of another test is TAOK3 (Homo sapiens, UniProt Q9H2K8). Conditions: competition binding, % of control; read-out: Percent Control (100 uM Levosimendan). The essentials:
as §1

The target in the next test is TGFBR2 (Homo sapiens, UniProt P37173). Conditions: competition binding, % of control; read-out: Percent Control (100 uM Levosimendan). The essentials:
as §1

In a further test the target is ULK2 (Homo sapiens, UniProt Q8IYT8). Conditions: competition binding, % of control; read-out: Percent Control (100 uM Levosimendan). Summed up:
as §1

The target in the next test is WNK1 (Homo sapiens, UniProt Q9H4A3). Conditions: competition binding, % of control; read-out: Percent Control (100 uM Levosimendan). The essentials: as §1
Chain of WNK1 (Q9H4A3 whole entry): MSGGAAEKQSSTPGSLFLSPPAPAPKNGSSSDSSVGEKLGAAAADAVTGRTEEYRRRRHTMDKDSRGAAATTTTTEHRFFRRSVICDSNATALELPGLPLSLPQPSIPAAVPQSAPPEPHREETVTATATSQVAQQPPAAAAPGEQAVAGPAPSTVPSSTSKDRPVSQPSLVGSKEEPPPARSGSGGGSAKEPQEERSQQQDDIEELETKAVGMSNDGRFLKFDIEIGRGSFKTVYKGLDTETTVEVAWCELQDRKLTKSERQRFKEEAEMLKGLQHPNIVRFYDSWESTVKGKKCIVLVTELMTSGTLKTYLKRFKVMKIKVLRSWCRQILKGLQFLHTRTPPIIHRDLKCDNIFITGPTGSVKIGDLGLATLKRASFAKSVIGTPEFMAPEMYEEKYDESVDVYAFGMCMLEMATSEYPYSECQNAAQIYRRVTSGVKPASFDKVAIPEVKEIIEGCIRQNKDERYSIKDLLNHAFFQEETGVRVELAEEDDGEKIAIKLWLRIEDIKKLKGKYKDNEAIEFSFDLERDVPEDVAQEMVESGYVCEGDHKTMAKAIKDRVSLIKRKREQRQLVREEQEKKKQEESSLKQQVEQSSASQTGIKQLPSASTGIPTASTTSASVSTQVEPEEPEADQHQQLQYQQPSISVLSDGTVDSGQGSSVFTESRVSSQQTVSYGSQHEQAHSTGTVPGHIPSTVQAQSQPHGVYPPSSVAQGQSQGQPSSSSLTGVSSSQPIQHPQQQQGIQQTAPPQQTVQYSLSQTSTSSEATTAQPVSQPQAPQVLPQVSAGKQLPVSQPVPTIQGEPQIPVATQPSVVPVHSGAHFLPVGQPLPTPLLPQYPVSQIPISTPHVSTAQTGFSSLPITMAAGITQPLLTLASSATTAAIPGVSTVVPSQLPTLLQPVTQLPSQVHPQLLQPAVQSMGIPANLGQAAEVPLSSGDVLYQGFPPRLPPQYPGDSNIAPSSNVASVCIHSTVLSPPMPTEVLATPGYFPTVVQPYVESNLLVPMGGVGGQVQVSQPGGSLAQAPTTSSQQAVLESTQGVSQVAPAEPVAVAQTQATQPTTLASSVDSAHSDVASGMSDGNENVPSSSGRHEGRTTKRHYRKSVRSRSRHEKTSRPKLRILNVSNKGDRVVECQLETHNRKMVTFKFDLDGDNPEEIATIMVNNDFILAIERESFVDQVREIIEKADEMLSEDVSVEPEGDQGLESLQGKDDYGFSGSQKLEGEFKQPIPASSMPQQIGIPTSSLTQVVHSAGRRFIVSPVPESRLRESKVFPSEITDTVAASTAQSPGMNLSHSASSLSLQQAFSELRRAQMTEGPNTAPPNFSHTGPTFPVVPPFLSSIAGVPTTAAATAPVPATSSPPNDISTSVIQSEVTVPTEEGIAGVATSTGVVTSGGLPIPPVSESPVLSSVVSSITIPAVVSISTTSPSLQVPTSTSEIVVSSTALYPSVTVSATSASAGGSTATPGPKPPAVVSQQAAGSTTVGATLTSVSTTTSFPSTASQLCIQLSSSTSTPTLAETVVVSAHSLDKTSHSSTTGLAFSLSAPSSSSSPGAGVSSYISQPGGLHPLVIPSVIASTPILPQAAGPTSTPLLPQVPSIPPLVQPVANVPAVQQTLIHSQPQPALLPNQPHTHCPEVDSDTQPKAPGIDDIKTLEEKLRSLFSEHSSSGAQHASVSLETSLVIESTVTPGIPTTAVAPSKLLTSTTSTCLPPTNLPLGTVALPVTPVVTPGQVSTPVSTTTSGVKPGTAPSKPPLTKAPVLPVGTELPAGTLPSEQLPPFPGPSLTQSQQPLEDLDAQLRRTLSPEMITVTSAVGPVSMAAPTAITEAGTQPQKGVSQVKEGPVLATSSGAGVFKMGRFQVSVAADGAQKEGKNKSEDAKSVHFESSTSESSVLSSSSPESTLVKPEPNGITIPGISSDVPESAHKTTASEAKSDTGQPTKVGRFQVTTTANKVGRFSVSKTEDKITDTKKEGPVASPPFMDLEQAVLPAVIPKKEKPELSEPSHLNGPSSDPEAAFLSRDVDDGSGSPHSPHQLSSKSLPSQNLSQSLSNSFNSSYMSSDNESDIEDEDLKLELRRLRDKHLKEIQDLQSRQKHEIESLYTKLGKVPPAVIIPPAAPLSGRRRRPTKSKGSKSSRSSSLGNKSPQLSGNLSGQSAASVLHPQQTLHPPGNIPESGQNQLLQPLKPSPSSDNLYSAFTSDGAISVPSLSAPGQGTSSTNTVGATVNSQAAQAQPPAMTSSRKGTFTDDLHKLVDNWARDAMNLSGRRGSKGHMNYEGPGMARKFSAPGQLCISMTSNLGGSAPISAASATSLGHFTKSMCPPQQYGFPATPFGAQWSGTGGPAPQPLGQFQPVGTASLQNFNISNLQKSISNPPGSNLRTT

T2 sequence (Q9P289 whole entry): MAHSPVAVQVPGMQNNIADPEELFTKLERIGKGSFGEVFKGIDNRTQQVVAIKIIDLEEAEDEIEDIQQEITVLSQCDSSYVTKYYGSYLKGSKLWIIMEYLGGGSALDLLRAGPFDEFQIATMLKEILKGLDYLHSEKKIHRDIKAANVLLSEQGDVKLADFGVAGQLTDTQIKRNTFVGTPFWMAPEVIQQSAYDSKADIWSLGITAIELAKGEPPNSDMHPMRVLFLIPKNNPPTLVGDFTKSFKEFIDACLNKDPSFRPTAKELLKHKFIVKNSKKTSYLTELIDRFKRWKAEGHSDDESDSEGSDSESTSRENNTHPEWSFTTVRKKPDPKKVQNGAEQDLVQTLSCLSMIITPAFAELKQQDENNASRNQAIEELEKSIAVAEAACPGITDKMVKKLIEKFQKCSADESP
Chain of MAP4K5 (Q9Y4K4 whole entry): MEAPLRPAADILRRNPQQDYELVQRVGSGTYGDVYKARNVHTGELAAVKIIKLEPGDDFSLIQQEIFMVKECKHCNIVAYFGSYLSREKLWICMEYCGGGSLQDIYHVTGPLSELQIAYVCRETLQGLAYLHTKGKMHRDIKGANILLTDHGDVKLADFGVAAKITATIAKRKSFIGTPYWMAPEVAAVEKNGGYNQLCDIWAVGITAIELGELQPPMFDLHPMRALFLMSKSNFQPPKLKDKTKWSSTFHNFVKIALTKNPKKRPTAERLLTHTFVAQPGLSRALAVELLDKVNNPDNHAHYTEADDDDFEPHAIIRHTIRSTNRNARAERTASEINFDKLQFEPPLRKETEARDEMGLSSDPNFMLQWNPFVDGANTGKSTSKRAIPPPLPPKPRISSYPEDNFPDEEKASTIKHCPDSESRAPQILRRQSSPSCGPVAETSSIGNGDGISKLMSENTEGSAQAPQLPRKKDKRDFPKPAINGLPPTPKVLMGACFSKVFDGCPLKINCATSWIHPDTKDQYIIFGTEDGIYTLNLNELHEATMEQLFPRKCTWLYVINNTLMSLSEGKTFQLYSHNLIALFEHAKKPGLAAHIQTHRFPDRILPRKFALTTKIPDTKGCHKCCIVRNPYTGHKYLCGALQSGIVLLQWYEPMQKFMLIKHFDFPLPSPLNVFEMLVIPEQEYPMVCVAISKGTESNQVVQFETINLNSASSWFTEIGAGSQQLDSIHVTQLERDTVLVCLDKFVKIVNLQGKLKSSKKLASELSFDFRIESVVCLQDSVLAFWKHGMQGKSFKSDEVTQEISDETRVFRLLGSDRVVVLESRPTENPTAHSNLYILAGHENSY
Chain of RIPK2 (O43353 whole entry): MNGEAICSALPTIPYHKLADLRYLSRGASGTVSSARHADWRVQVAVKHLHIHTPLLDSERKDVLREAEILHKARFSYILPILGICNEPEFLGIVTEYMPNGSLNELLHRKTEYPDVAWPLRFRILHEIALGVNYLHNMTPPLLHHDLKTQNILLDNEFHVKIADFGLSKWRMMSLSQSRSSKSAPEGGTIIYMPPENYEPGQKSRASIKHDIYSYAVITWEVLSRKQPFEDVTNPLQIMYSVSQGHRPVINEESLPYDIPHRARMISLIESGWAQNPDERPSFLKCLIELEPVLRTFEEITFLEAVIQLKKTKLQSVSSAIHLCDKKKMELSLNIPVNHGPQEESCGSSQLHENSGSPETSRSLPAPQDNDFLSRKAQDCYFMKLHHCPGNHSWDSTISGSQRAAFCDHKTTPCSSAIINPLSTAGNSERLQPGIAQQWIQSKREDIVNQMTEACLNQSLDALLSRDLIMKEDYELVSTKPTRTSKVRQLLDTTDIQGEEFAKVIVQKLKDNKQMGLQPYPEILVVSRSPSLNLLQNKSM
Chain of CDK5 (Q00535 whole entry): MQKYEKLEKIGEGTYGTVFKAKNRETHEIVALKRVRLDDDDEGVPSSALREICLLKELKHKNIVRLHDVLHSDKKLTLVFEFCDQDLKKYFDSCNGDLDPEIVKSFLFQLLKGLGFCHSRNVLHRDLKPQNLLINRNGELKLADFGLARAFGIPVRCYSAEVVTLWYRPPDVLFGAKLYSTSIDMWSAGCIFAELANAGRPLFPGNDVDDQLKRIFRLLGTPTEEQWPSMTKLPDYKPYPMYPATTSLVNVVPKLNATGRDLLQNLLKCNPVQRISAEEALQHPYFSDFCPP

For `C[C@@H]1CC(=O)NN=C1c1ccc(NN=C(C#N)C#N)cc1` [levosimendan], the remaining binding at 100 µM on CDK5 was 100%; at CHEK2 (read-out: Percent Control (100 uM Levosimendan)) it was 0.65%; at CLK4, 89%; on CSNK1G1, 78%; on MAP4K3 it was 95%; at MAP4K5, 100%. In addition, the remaining binding at 100 µM at MELK turned out to be 100%; at MKNK1, 65%; at MRCKB, 74%; on MST4, 71%; at PRKCI, 58%; on RIPK2, 91%. The remaining binding at 100 µM at RIPK4 is 99%; in [1] it was 100%; at SGK3 it was 92%; at TAOK3, 100%; at TGFBR2, 89%; at ULK2 it was 56%. Besides, the remaining binding at 100 µM on WNK1 was 100%. Further, the remaining binding at 10 µM at CHEK2 (read-out: Percent Control (10 uM Levosimendan)) came out at 41%.
